According to US10941151B2, “Chiral N-acyl-5,6,7(8-substituted)-tetrahydro-[1,2,4]triazolo[4,3-a]pyrazines as selective NK-3 receptor antagonists, pharmaceutical composition, methods for use in NK-3 receptor mediated disorders and chiral synthesis thereof” (Ogeda SA, priority 2011, dated 2021):

What was measured:
[1] = test system: circulating levels of luteinizing hormone (LH); assay: Castrated male rat model, circulating luteinizing hormone (LH); type: in vivo; details: single intravenous 10 mg/kg dose, castrated male Sprague-Dawley rats, 1 hour after dosing
Excerpt: Vehicle, N=10 rats; Compound n^o 1, N=9 rats.
Vehicle, n=5 rats; Compound n^o 19, n=5 rats.
In humans and rodents, castration is well-precedented to permit heightened, persistent GnRH signaling and consequent elevation of circulating LH. Thus, a castrated rat model is used to provide a broad index for measurement of LH inhibition as a marker of test compound inhibition of the GnRH signaling pathway.
Castrated adult male Sprague-Dawley (SD) rats (150-175 g,) were purchased from Janvier (St Berthevin, France). […] The animals were allowed 2 weeks of postoperative recovery prior to study. Animals were handled on a daily basis. Standard diet and tap water were provided ad libitum. Animal cage litters were changed once a week. On the study day, animals were acclimated to the procedure room for a period of one hour prior to the initiation of the experiment.
Compounds of the invention were formulated as a […] with 90 g/L (2-Hydroxypropyl)-β-CycloDextrin.
After basal sampling (T0) a single dose of compounds of the invention or vehicle was administrated intravenously to rats. Blood was then collected at 60 min post dosing. Blood samples were obtained via tail vein bleed, drawn into EDTA-containing tubes and centrifuged immediately. […] Serum LH levels were determined using radioimmunoas say kit from RIAZEN—Rat LH, Zentech (Liège, Belgium). […]

[2] = test system: circulating levels of testosterone; assay: Gonad-intact adult male rat, circulating testosterone; type: in vivo; details: single intravenous 50 mg/kg dose, gonad-intact male Sprague-Dawley rats, over 210 minute test period (AUC)

Row | SMILES | circulating LH levels [1] | plasma testosterone levels [2]
1 | Cc1nc(-c2nnc3n2CCN(C(=O)c2ccc(-c4cccs4)cc2)[C@@H]3C)cs1 [Compound 1, (R)-(8-methyl-3-(2-methylthiazol-4-yl)-5,6-dihydro-[1,2,4]triazolo[4,3-a]pyrazin-7(8H)-yl)(4-(thiophen-2-yl)phenyl)methanone] | significantly suppressed | significantly suppressed
2 | Cc1csc(-c2nnc3n2CCN(C(=O)c2ccc(-c4cccs4)cc2)[C@@H]3C)n1 [Compound 19, (R)-(8-methyl-3-(4-methylthiazol-2-yl)-5,6-dihydro-[1,2,4]triazolo[4,3-a]pyrazin-7(8H)-yl)(4-(thiophen-2-yl)phenyl)methanone] | significantly suppressed | –
